As usually defined, the ED50 is the midpoint of the dose-response relation.

The series is described as follows: Spontaneous locomotor activity test in mice. Particulars: mouse, in vivo; single oral dose, male ICR mice; read-out: ED50, inhibition of spontaneous locomotor activity.

Regarding `O=C1CCc2cc(OCCCN3CCC(c4noc5cc(F)ccc45)CC3)cc3c2N1CC3` [NH300094, 8-(3-(4-(6-fluorobenzo [d]isoxazol-3-yl)piperidin-1-yl)propoxy)-1,2,5,6-tetrahydro-4H-pyrrolo [3,2,1-ij] quinolin-4-one], the ED50 at 60 min is about 0.49 mg/kg.

The values are drawn from publication PMC10848157, “Assessing NH300094, a novel dopamine and serotonin receptor modulator with cognitive enhancement property for treating schizophrenia” (Frontiers in Pharmacology, 2024).
